Experimental data reported in PubChem BioAssay (NCI).
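Five concentrations, 48 hours, 96-well plates. TGI marks complete inhibition of growth.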

Legend:
Experiment in all cases: DTP human tumour cell line panel, 48 h
T-47D breast = test system: T-47D breast
786-0 renal = test system: 786-0 renal
NCI-H460 lung = test system: NCI-H460 lung
LOX IMVI melanoma = test system: LOX IMVI melanoma
DU-145 prostate = test system: DU-145 prostate
SF-295 CNS = test system: SF-295 CNS
MDA-MB-435 = test system: MDA-MB-435
SN12C renal = test system: SN12C renal
K-562 leukemia = test system: K-562 leukemia
OVCAR-3 ovarian = test system: OVCAR-3 ovarian
MALME-3M melanoma = test system: MALME-3M melanoma
HL-60(TB) leukemia = test system: HL-60(TB) leukemia
TK-10 renal = test system: TK-10 renal
BT-549 breast = test system: BT-549 breast
HOP-62 NSCLC = test system: HOP-62 NSCLC
SF-539 CNS = test system: SF-539 CNS
RXF 393 renal = test system: RXF 393 renal
HCT-116 colon = test system: HCT-116 colon
MDA-MB-231 breast = test system: MDA-MB-231 breast
M14 melanoma = test system: M14 melanoma
EKVX NSCLC = test system: EKVX NSCLC
MCF7 breast = test system: MCF7 breast
HCT-15 colon = test system: HCT-15 colon
ACHN renal = test system: ACHN renal
NCI-H23 lung = test system: NCI-H23 lung
SF-268 CNS = test system: SF-268 CNS
NCI/ADR-RES ovarian = test system: NCI/ADR-RES ovarian
COLO 205 colon = test system: COLO 205 colon
UO-31 renal = test system: UO-31 renal
PC-3 prostate = test system: PC-3 prostate
RPMI-8226 leukemia = test system: RPMI-8226 leukemia
SR leukemia = test system: SR leukemia
HT29 colon = test system: HT29 colon
KM12 colon = test system: KM12 colon
HCC-2998 colon = test system: HCC-2998 colon
A549 NSCLC = test system: A549 NSCLC
OVCAR-5 ovarian = test system: OVCAR-5 ovarian
SW-620 colon = test system: SW-620 colon
NCI-H522 lung = test system: NCI-H522 lung
UACC-62 melanoma = test system: UACC-62 melanoma
HS 578T breast = test system: HS 578T breast
SNB-75 CNS = test system: SNB-75 CNS
SNB-19 CNS = test system: SNB-19 CNS
IGROV1 ovarian = test system: IGROV1 ovarian
SK-MEL-28 melanoma = test system: SK-MEL-28 melanoma
HOP-92 NSCLC = test system: HOP-92 NSCLC
SK-OV-3 ovarian = test system: SK-OV-3 ovarian
MOLT-4 leukemia = test system: MOLT-4 leukemia
OVCAR-8 ovarian = test system: OVCAR-8 ovarian
A498 renal = test system: A498 renal
MDA-N = test system: MDA-N
NCI-H226 lung = test system: NCI-H226 lung
U251 CNS = test system: U251 CNS
CCRF-CEM leukemia = test system: CCRF-CEM leukemia
OVCAR-4 ovarian = test system: OVCAR-4 ovarian
UACC-257 melanoma = test system: UACC-257 melanoma
SK-MEL-5 melanoma = test system: SK-MEL-5 melanoma
CAKI-1 renal = test system: CAKI-1 renal
SK-MEL-2 melanoma = test system: SK-MEL-2 melanoma

Cc1cccc2c1CC1(Cc3ccccc3C1=O)C2=O (stereo unspecified)
TGI (T-47D breast): > 100 µM | TGI (786-0 renal): > 100 µM | TGI (NCI-H460 lung): > 100 µM | TGI (LOX IMVI melanoma): > 100 µM | TGI (DU-145 prostate): > 100 µM | TGI (SF-295 CNS): > 100 µM | TGI (MDA-MB-435): > 100 µM | TGI (SN12C renal): > 100 µM | TGI (K-562 leukemia): > 100 µM | TGI (OVCAR-3 ovarian): > 100 µM | TGI (MALME-3M melanoma): > 100 µM | TGI (HL-60(TB) leukemia): > 100 µM | TGI (TK-10 renal): > 100 µM | TGI (BT-549 breast): 80.6 µM | TGI (HOP-62 NSCLC): > 100 µM | TGI (SF-539 CNS): > 100 µM | TGI (RXF 393 renal): > 100 µM | TGI (HCT-116 colon): > 100 µM | TGI (MDA-MB-231 breast): > 100 µM | TGI (M14 melanoma): > 100 µM | TGI (EKVX NSCLC): > 100 µM | TGI (MCF7 breast): > 100 µM | TGI (HCT-15 colon): > 100 µM | TGI (ACHN renal): > 100 µM | TGI (NCI-H23 lung): > 100 µM | TGI (SF-268 CNS): > 100 µM | TGI (NCI/ADR-RES ovarian): > 100 µM | TGI (COLO 205 colon): > 100 µM | TGI (UO-31 renal): > 100 µM | TGI (PC-3 prostate): > 100 µM | TGI (RPMI-8226 leukemia): > 100 µM | TGI (SR leukemia): > 100 µM | TGI (HT29 colon): > 100 µM | TGI (KM12 colon): > 100 µM | TGI (HCC-2998 colon): > 100 µM | TGI (A549 NSCLC): > 100 µM | TGI (OVCAR-5 ovarian): > 100 µM | TGI (SW-620 colon): > 100 µM | TGI (NCI-H522 lung): > 100 µM | TGI (UACC-62 melanoma): > 100 µM | TGI (HS 578T breast): > 100 µM | TGI (SNB-75 CNS): > 100 µM | TGI (SNB-19 CNS): > 100 µM | TGI (IGROV1 ovarian): > 100 µM | TGI (SK-MEL-28 melanoma): > 100 µM | TGI (HOP-92 NSCLC): > 100 µM | TGI (SK-OV-3 ovarian): 99.6 µM | TGI (MOLT-4 leukemia): > 100 µM | TGI (OVCAR-8 ovarian): > 100 µM | TGI (A498 renal): > 100 µM | TGI (MDA-N): > 100 µM | TGI (NCI-H226 lung): > 100 µM | TGI (U251 CNS): > 100 µM | TGI (CCRF-CEM leukemia): > 100 µM | TGI (OVCAR-4 ovarian): > 100 µM | TGI (UACC-257 melanoma): > 100 µM | TGI (SK-MEL-5 melanoma): > 100 µM

CC(=O)N/N=C1/NN(C(C)=O)C2(S1)C(=O)Nc1ccc(C)cc12 (stereo unspecified)
TGI (T-47D breast): 70.9 µM | TGI (786-0 renal): > 100 µM | TGI (NCI-H460 lung): > 100 µM | TGI (LOX IMVI melanoma): > 100 µM | TGI (DU-145 prostate): > 100 µM | TGI (SF-295 CNS): > 100 µM | TGI (MDA-MB-435): > 100 µM | TGI (SN12C renal): > 100 µM | TGI (K-562 leukemia): > 100 µM | TGI (OVCAR-3 ovarian): > 100 µM | TGI (MALME-3M melanoma): > 100 µM | TGI (HL-60(TB) leukemia): > 100 µM | TGI (TK-10 renal): > 100 µM | TGI (BT-549 breast): > 100 µM | TGI (HOP-62 NSCLC): > 100 µM | TGI (CAKI-1 renal): > 100 µM | TGI (SF-539 CNS): > 100 µM | TGI (RXF 393 renal): > 100 µM | TGI (HCT-116 colon): > 100 µM | TGI (MDA-MB-231 breast): > 100 µM | TGI (M14 melanoma): > 100 µM | TGI (EKVX NSCLC): > 100 µM | TGI (MCF7 breast): > 100 µM | TGI (HCT-15 colon): > 100 µM | TGI (ACHN renal): > 100 µM | TGI (NCI-H23 lung): > 100 µM | TGI (SF-268 CNS): > 100 µM | TGI (NCI/ADR-RES ovarian): > 100 µM | TGI (COLO 205 colon): > 100 µM | TGI (UO-31 renal): > 100 µM | TGI (PC-3 prostate): > 100 µM | TGI (RPMI-8226 leukemia): > 100 µM | TGI (SR leukemia): > 100 µM | TGI (HT29 colon): > 100 µM | TGI (KM12 colon): > 100 µM | TGI (HCC-2998 colon): > 100 µM | TGI (A549 NSCLC): > 100 µM | TGI (OVCAR-5 ovarian): > 100 µM | TGI (NCI-H522 lung): > 100 µM | TGI (UACC-62 melanoma): > 100 µM | TGI (HS 578T breast): > 100 µM | TGI (SNB-75 CNS): > 100 µM | TGI (SNB-19 CNS): > 100 µM | TGI (IGROV1 ovarian): > 100 µM | TGI (SK-MEL-28 melanoma): > 100 µM | TGI (HOP-92 NSCLC): > 100 µM | TGI (MOLT-4 leukemia): > 100 µM | TGI (OVCAR-8 ovarian): > 100 µM | TGI (A498 renal): > 100 µM | TGI (MDA-N): > 100 µM | TGI (NCI-H226 lung): > 100 µM | TGI (U251 CNS): > 100 µM | TGI (CCRF-CEM leukemia): > 100 µM | TGI (OVCAR-4 ovarian): > 100 µM | TGI (UACC-257 melanoma): > 100 µM | TGI (SK-MEL-5 melanoma): > 100 µM

COC(=O)C1(Cc2ccccc2)Cc2cc3c(cc2C1)CCC3
TGI (T-47D breast): 75.9 µM | TGI (786-0 renal): > 100 µM | TGI (NCI-H460 lung): > 100 µM | TGI (LOX IMVI melanoma): 34.7 µM | TGI (DU-145 prostate): > 100 µM | TGI (SF-295 CNS): > 100 µM | TGI (MDA-MB-435): 35.6 µM | TGI (SN12C renal): > 100 µM | TGI (K-562 leukemia): 41.6 µM | TGI (OVCAR-3 ovarian): > 100 µM | TGI (MALME-3M melanoma): 52.6 µM | TGI (HL-60(TB) leukemia): 31.3 µM | TGI (TK-10 renal): > 100 µM | TGI (BT-549 breast): > 100 µM | TGI (HOP-62 NSCLC): > 100 µM | TGI (SF-539 CNS): > 100 µM | TGI (RXF 393 renal): 50.7 µM | TGI (HCT-116 colon): 76.9 µM | TGI (MDA-MB-231 breast): > 100 µM | TGI (M14 melanoma): > 100 µM | TGI (EKVX NSCLC): 60.9 µM | TGI (MCF7 breast): 42.5 µM | TGI (HCT-15 colon): > 100 µM | TGI (ACHN renal): > 100 µM | TGI (NCI-H23 lung): > 100 µM | TGI (SF-268 CNS): > 100 µM | TGI (NCI/ADR-RES ovarian): > 100 µM | TGI (COLO 205 colon): 33.3 µM | TGI (UO-31 renal): > 100 µM | TGI (PC-3 prostate): > 100 µM | TGI (RPMI-8226 leukemia): 36.5 µM | TGI (SR leukemia): 31.3 µM | TGI (HT29 colon): 24.6 µM | TGI (KM12 colon): 76.4 µM | TGI (HCC-2998 colon): > 100 µM | TGI (SK-MEL-2 melanoma): 40.1 µM | TGI (A549 NSCLC): > 100 µM | TGI (OVCAR-5 ovarian): 82.6 µM | TGI (SW-620 colon): > 100 µM | TGI (NCI-H522 lung): 56.4 µM | TGI (UACC-62 melanoma): > 100 µM | TGI (HS 578T breast): > 100 µM | TGI (SNB-75 CNS): 95.4 µM | TGI (SNB-19 CNS): > 100 µM | TGI (IGROV1 ovarian): > 100 µM | TGI (SK-MEL-28 melanoma): > 100 µM | TGI (HOP-92 NSCLC): 41.2 µM | TGI (SK-OV-3 ovarian): > 100 µM | TGI (MOLT-4 leukemia): 35 µM | TGI (OVCAR-8 ovarian): 88.9 µM | TGI (A498 renal): 82.4 µM | TGI (MDA-N): 53.5 µM | TGI (NCI-H226 lung): 63.3 µM | TGI (U251 CNS): 64.9 µM | TGI (CCRF-CEM leukemia): 31.6 µM | TGI (OVCAR-4 ovarian): > 100 µM | TGI (UACC-257 melanoma): 78.8 µM | TGI (SK-MEL-5 melanoma): 33.7 µM
